These results are taken from patent US20030071268A1, “Optical data storage medium containing a diaza hemicyanine dye as the light-absorbing compound in the information layer” (priority 2001, published 2003).

Type in all cases: physicochemical
The nature of data set [1]: absorption spectra measured in solution. As for the experimental part: (§1) For a recordable optical data storage medium according to the invention which is recorded on and read using light from a blue laser, such diaza hemicyanine dyes are preferred whose absorption maximum λmax2 is in the range from 420 to 550 nm, wherein the wavelength λ½ at which the extinction on the short-wavelength slope of the absorption maximum of the wavelength λmax2 is half the extinction value at λmax2, and the wavelength λ 1/10, at which the extinction on the short-wavelength slope of the absorption maximum of the wavelength λmax2 is a tenth of the extinction value at λmax2, are preferably in each case no further than 50 nm away from each other.
as §1, with “a red” for “a blue”, “from 500” for “from 420”, “to 650” for “to 550”, “the long-wavelength” for “the short-wavelength”, “50 mn” for “50 nm”, “other. […]” for “other.”
The absorption spectra are, for example, measured in solution.

Data set [2] can be described thus: solubility in TFP (2,2,3,3-tetrafluoropropanol).
The next data set can be described thus: film appearance. From the text: In addition to the above-mentioned optical properties, the recordable information layer consisting of light-absorbing organic substances must have a morphology which is as amorphous as possible, in order to keep the noise signal during recording or reading as small as possible. For this purpose it is particularly preferable, when applying the substances by spin-coating from a solution or by vapour deposition and/or sublimation, to prevent crystallization of the light-absorbing substances during the subsequent top-coating with metallic or dielectric layers in vacuo.

Molecules are shown by their SMILES.

`CC(C)N(c1n[n+](C)c(/N=N/c2sc(N3CCOCC3)nc2-c2ccccc2)s1)C(C)C` [Example 1] displayed a ε in data set [1] (Example 1) of 30100 mol⁻¹ cm⁻¹. The compound further had a λmax in data set [1] (in methanol) of 592 nm. Further, the Solubility in data set [2] is listed as > 2%. Further, the film appearance result in “film appearance” was “a glassy film”.
